The values that follow come from US12371400B2, “Cathepsin inhibitors” (ACADEMISCH ZIEKENHUIS LEIDEN (H.O.D.N. LUMC), priority 2017, dated 2025).

Structures are written as SMILES.

One data set has as its target T1, hCatK (Homo sapiens, UniProt P43235).
T1 sequence (P43235 115-329): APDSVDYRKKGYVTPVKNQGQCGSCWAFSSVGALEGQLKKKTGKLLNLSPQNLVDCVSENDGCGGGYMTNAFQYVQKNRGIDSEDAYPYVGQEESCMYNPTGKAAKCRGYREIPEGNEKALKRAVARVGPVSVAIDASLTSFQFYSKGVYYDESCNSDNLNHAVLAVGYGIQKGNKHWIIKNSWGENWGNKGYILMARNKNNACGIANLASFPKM
As to the kind of experiment: Kinetic evaluation of covalent inhibitors on purified hCatK. To be noted: 100 pM hCatK, 4 μM Z-FR-AMC, 26° C., reaction started by addition of CatK; for Ki: read-out: Kl; for kinact: read-out: kinact (converted). The data set is classed as biochemical. The procedure: The reaction kinetics of irreversible covalent inhibitor compounds may be assed in the following manner. Inhibitors (200 nL, 100× final concentration in DMSO) were diluted in reaction buffer (10 μL). Fluorogenic substrate (5 μL, 4× final concentration) was added and the reaction was started by addition of Cathepsin (5 μL, 4× final concentration). Fluorescence intensity was measured every 2 minutes for 60 minutes and fitted to equation I to obtain the Kobs. The obtained values were plotted against the inhibitor concentration and fitted to equation II to obtain kinetic parameters Kinact (rate of covalent bond formation) and Ki.
Kinetic evaluation of irreversible covalent inhibitors was conducted by following the progress curve of inhibition when the hydrolysis of substrate is started by addition of the enzyme (instead of incubating the protease with the inhibitor prior to addition of the substrate). From this curve the maximum rate of covalent bond formation (Kinact) could be determined (Table 4).

In data set [1] the target is T2, CatK (Homo sapiens, UniProt P43235).
T2 sequence (P43235 115-329): T1 sequence (P43235 115-329)
Briefly: CatK activity (probe BMV109) and CatK expression (Western blot) in OC lysates. The data set is classed as cell-based. More on the design: endogenous in cells; host or cells: human osteoclasts differentiated from CD14+ monocytes on cortical bone slices. To be noted: for mature CatK in OCs (Western blotting): OCs treated with inhibitor. The procedure:
(§1) The inhibitory properties on CatK of inhibitors of this invention were tested in a biologically relevant setting: inhibition of bone resorption by osteoclasts (OCs). OCs are the cells that degrade the bone matrix by secretion of acid and CatK into the resorption lacunae, resulting in the cleavage of collagen type I. Inhibition of osteoclastic CatK was studied by culturing OCs on cortical bone slices in presence of inhibitors of this invention (FIG. 5). […] OCs predominantly form deep trenches (paths) while OCs lacking CatK form small pits (circular dots). B) CD14+ monocytes on bone slices were treated with MCSF (day 0) and RANKL (day 3) to stimulate differentiation to mature OCs. Medium containing either an inhibitor or DMSO was refreshed on day 7, 10, 13 and 16. At day 21, OCs were washed away and lysed, and bone slices were stained to visualize bone resorption. C) Bone resorption visualized by staining of resorption pits with Coomassie Brilliant Blue. More staining means more resorption pits, thus more bone resorption activity. Normal D) Schematic overview of pro-Cathepsin K activation. E) CatK activity and expression in OC lysates. […] Darker bands indicate more activity/expression of CatK.
OC lysates were treated with activity-based irreversible Cathepsin probe BMV109 to assess whether the observed inhibition of bone resorption could be correlated with CatK activity (FIG. 5E).

A further data set relates to human osteoclasts (OCs). As to the kind of experiment: Inhibition of bone resorption by human osteoclasts cultured on cortical bone slices. The data set is classed as cell-based. To be noted: for effective dose / concentration inhibiting bone resorption: human OCs on cortical bone slices, staining at day 21. How it is done: as §1
Another data set deals with hCatV (Homo sapiens, UniProt O60911). As to the kind of experiment: In vitro inhibition of purified human Cathepsin V (Z-FR-AMC). The data set is classed as biochemical. To be noted: 30 min incubation with inhibitor, mean ± SD, triplicate. How it is done: Cathepsin (e.g. Cathepsin K/L/V/S/B), in particular purified human Cathepsin, was diluted in freshly prepared reaction buffer consisting of 50 mM MES pH 5.5, 25 mM EDTA and 2.5 mM DTT. 0.05% Tween20 (v/v) may be added to the reaction buffer of the Cathepsin K.
Activity assays may be conducted in a suitable manner. […] Plates were shaken at 600 rpm for 1 minute and centrifuged at 1000 rpm for 1 minute prior to incubation. Cathepsin activity was quantified using synthetic fluorogenic peptide substrate Z-FR-AMC (Cath K, L, V), Z-RR-AMC (Cath B) or Z-FVR-AMC (Cath S). Fluorescence intensity (λex=350 nm, λem=440 nm) was measured every 2 minutes in arbitrary units (A.U.) on a CLARIOstar (BMG Labtech) microplate reader and values were converted to product formation [AMC]. […] Measurements were performed in triplicate.
Inhibitors (200 nL, 100× final concentration in DMSO) were diluted in reaction buffer (10 μL). Purified human Cathepsin (5 μL, 4× final concentration) was added and the reaction mixture was incubated for 30 min at room temperature. Fluorogenic substrate (5 μL, 4× final concentration) was added and fluorescence intensity was measured every 2 minutes for 30-90 minutes.
The potency of the compounds as CatK inhibitors was assessed in an in vitro inhibition assay on purified human CatK (Table 2). Cathepsin was incubated with inhibitor, and the hydrolysis of substrate was initiated by addition of substrate.

For data set [2] the following is noted: phase III clinical trials; cited from earlier work.
The conditions of data set [3]: in vivo; cited from earlier work.
Data set [4] concerns the target T2, CatK. To be noted: cited from earlier work.
[5] abbreviates: samples treated with high concentrations.

Chain of hCatV (O60911 114-334): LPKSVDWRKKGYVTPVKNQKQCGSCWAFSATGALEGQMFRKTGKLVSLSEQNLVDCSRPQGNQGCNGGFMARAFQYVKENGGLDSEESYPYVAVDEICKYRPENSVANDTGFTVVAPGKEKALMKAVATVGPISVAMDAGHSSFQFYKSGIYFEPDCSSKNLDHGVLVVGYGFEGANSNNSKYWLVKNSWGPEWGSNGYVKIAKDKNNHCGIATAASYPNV

By kinact is commonly meant the maximal first-order rate at which the target is inactivated. By IC50 is commonly meant the point on the concentration scale where inhibition reaches its midpoint. Read a high IC50 as a need for much substance. For `C#CCNC(=O)[C@H](CC(C)(C)F)N[C@@H](c1ccc(-c2ccc(S(C)(=O)=O)cc2)cc1)C(F)(F)F` [Compound 4, (S)-4-fluoro-4-methyl-N-(prop-2-yn-1-yl)-2-(((S)-2,2,2-trifluoro-1-(4′-(methylsulfonyl)-[1,1′-biphenyl]-4-yl)ethyl)amino)pentanamide], at hCatK, the kinact/Kl was 883 M⁻¹ s⁻¹, the Ki turned out to be 0.212 µM and the kinact was 0.000183 s⁻¹. Moreover, the “mature CatK in OCs (Western blotting)” value on CatK [1] is listed as “mature CatK is present”. Further, the “CatK activity in OC lysates (probe BMV109)” value (shortened to “CatK activity in OC lysates”) on CatK [1] (setting [5]) is “full inhibition of CatK activity”. The “effective dose / concentration inhibiting bone resorption” value in the data set with human osteoclasts (OCs) was at least 80 nM. The molecule further returned an IC50 on hCatV of 23.8 ± 1.41 µM.

By half-life is commonly meant how long it takes for the measured level to halve. `CC(C)(F)C[C@H](N[C@@H](c1ccc(-c2ccc(S(C)(=O)=O)cc2)cc1)C(F)(F)F)C(=O)NC1(C#N)CC1` [ODN, (S)—N-(1-cyanocyclopropyl)-4-fluoro-4-methyl-2-(((S)-2,2,2-trifluoro-1-(4′-(methylsulfonyl)-[1,1′-biphenyl]-4-yl)ethyl)amino)pentanamide, reference compound]: the stroke risk entry in data set [2] was “increased stroke risk”. Moreover, on CatK [1] (all samples treated), the “CatK activity in OC lysates” value is “strong increase of mature CatK activity”. The half-life in data set [3] is 66 to 93 h. The entries for the “bone resorption staining of bone slices” value in the data set with human osteoclasts (OCs) (3 nM) and with human osteoclasts (OCs) (15 nM) were “formation of deep trenches” and “formation of shallow pits”, respectively. In addition, in the data set with human osteoclasts (OCs), the “effective dose / concentration inhibiting bone resorption” value is listed as “around 15 nM”. The same molecule came in with an IC50 on hCatV of 0.605 ± 0.0401 µM. Besides, the “selectivity for CatK versus other Cathepsins” value at CatK [4] is given as “high selectivity”.

Regarding `C#CC(C)NC(=O)[C@H](CC(C)(C)F)N[C@@H](c1ccc(-c2ccc(S(C)(=O)=O)cc2)cc1)C(F)(F)F` (mixture of isomers) [Compound 5, (S)—N—((R/S)-but-3-yn-2-yl)-4-fluoro-4-methyl-2-(((S)-2,2,2-trifluoro-1-(4′-(methylsulfonyl)-[1,1′-biphenyl]-4-yl)ethyl)amino)pentanamide], at hCatK, the kinact/Kl was found to be 250 M⁻¹ s⁻¹, the Ki stood at 3.25 µM and the kinact is 0.000783 s⁻¹. For the same molecule, the “mature CatK in OCs (Western blotting)” value on CatK [1] was “mature CatK is present”. The “CatK activity in OC lysates” value on CatK [1] (setting [5]) was “full inhibition of CatK activity”. Moreover, in the data set with human osteoclasts (OCs) (all tested concentrations), the “inhibition of bone resorption” value is given as “non-conclusive”. In addition, the midpoint of inhibition at hCatV, the IC50, lay at 45.9 ± 2.33 µM.
